Consider two compounds from US12053479B2, “Transdermal treatment for erectile dysfunction” (Madera Pharmaceuticals, Inc., priority 2020, dated 2024).

Like-named read-outs stand apart in the source and are kept apart here.

Series [1] in a line: Drug solubility in individual excipients.
Series [2] in a line: In vitro permeation testing (IVPT), diffusion cell. Conditions: cumulative amount in receptor solution versus time (FIGS. 2-4).
Text: With reference to FIG. 1, in vitro skin permeation experiments used a diffusion cell designed to mimic the physiological and anatomical conditions of skin in situ. The diffusion cell included a donor compartment configured to receive the formulation, or solvent system, to be tested. A receptor compartment included a flow path for receptor solution, which was to be analyzed. Dermatomed skin was arranged between the donor compartment and receptor compartment. As such, a formulation comprising the solvent system having the drug is applied to the skin in the donor compartment. A portion of the drug permeated through the skin into the receptor solution, which was analyzed to determine drug concentration at several time periods, including 0.25, 0.5, 1, 1.5 2, 4, 6 and 8 hours. […]
The receptor solution was collected and analyzed as discussed. The cumulative amount per cm^2 of phentolamine, papaverine, and prostaglandin permeated into the receptor solution was calculated from drug concentrations measured in the receptor solution over time. The cumulative amount per cm^2 of phentolamine, papaverine, and prostaglandin at the final timepoint was calculated for each replicate. […] Means and standard errors were calculated and reported in figures and tables, including Tables 5 and 6 below.
Where [3] appears, read: in water, buffer solutions (pH 4 and 7) and glycerol.

For the compound `CCCCC[C@H](O)/C=C/[C@H]1[C@H](O)CC(=O)[C@@H]1CCCCCCC(=O)O` [Prostaglandin E1], the “Solubility (in words)” value in series [1] (in ethanol and transcutol P) is on record as “strongly soluble”; in series [1] (setting [3]), “poorly soluble”.
On to `COc1ccc(Cc2nccc3cc(OC)c(OC)cc23)cc1OC.Cl` [Papaverine HCl, papaverine hydrochloride], for which the Saturated solubility by setting is: (solvent system SSAG01, all three drugs combined) 7.58 % w/w; (solvent system SSAG01, drug added individually) 6.39 % w/w; (solvent system SSAG02, all three drugs combined) 9.44 % w/w; (solvent system SSAG02, drug added individually) 7.21 % w/w; (upon addition of phentolamine mesylate and prostaglandin E1, span over all solvent systems) 7.58-9.44 % w/w. Further, the “Solubility (in words)” value is “poorly soluble” in series [1] (in ethanol and transcutol P); “moderately soluble” in series [1] (setting [3]). Moreover, in series [1] (setting [3]), the Solubility is 2-3 % w/w. The “Amount permeated through the skin, SSAG02 with all of the drugs versus SSAG02 with the drug alone” value in series [2] is recorded as “much greater amount”.
